Among the data in patent US20060058314A1, “Oxazolidinone derivatives and their use as antibacterial agents” (AstraZeneca AB, priority 2002, published 2006) are MIC values, retold here.

Format in all cases: cell-based
Experiment [1] deals with Enterococcus faecium. Briefly: MIC, agar with 5% defibrinated horse blood, enterococci. The following applies: agar + 5% horse blood, 10^4 CFU/spot, 37° C., 5% CO2, 48 hours. Here is the method:
(§1) The following results were obtained on a standard in-vitro test system. The activity is described in terms of the minimum inhibitory concentration (MIC) determined by the agar-dilution technique with an inoculum size of 10^4 CFU/spot. Typically, compounds are active in the range 0.01 to 256 μg/ml.
(§2) Streptococci and enterococci were tested on agar supplemented with 5% defibrinated horse blood, an inoculum of 10^4 CFU/spot and an incubation temperature of 37° C. in an atmosphere of 5% carbon dioxide for 48 hours—blood is required for the growth of some of the test organisms. Fastidious Gram negative organisms were tested in Mueller-Hinton broth, supplemented with hemin and NAD, grown aerobically for 24 hours at 37° C., and with an innoculum of 5×10^4 CFU/well.

Experiment [2] has as its system Staphylococcus aureus MRQR (methicillin resistant and quinolone resistant). As to the kind of experiment: MIC, agar dilution, staphylococci. The following applies: 10^4 CFU/spot, 37° C., 24 hours. Here is the method:
as §1
(§3) Staphylococci were tested on agar, using an inoculum of 10^4 CFU/spot and an incubation temperature of 37° C. for 24 hours—standard test conditions for the expression of methicillin resistance.
Background: Agar dilution tests growth on a series of plates holding different concentrations.

Experiment [3] concerns Staphylococcus aureus MSQS (methicillin sensitive and quinolone sensitive). As to the kind of experiment: MIC, agar dilution, staphylococci. The following applies: 10^4 CFU/spot, 37° C., 24 hours. Here is the method:
as §1, §3

Experiment [4] has as its system Linezolid Resistant Streptococcus pneumoniae. Briefly: MIC, agar with 5% defibrinated horse blood, streptococci. The following applies: agar + 5% horse blood, 10^4 CFU/spot, 37° C., 5% CO2, 48 hours. The procedure: as §1, §2
Experiment [5] has as its system Streptococcus pneumoniae. The experiment is described as above. The following applies: agar + 5% horse blood, 10^4 CFU/spot, 37° C., 5% CO2, 48 hours. Here is the method: as §1, §2
Experiment [6] concerns Haemophilus influenzae. As to the kind of experiment: MIC, fastidious Gram negative organisms in Mueller-Hinton broth. The following applies: Mueller-Hinton broth + hemin and NAD, 24 hours, 37° C., 5×10^4 CFU/well. Here is the method: as §1, §2
For experiment [7], the system named is Moraxella catarrhalis. Described as above. The following applies: Mueller-Hinton broth + hemin and NAD, 24 hours, 37° C., 5×10^4 CFU/well. Here is the method: as §1, §2

Turning to `O=C1O[C@@H](Cn2ccnn2)CN1c1ccc(-c2cnc(C3=NOC(CO)C3)nc2)c(F)c1` (mixture of isomers) [Example 1, 3-(3-Fluoro-4-{2-(5RS)-[5-(hydroxymethyl)-4,5-dihydroisoxazol-3-yl]pyrimidin-5-yl}phenyl)-5-(5R)-(1H-1,2,3-triazol-1-ylmethyl)-1,3-oxazolidin-2-one], the MIC in experiment [1] is 2 mg/L; in experiment [2], 2 mg/L; in experiment [3] it was 2 mg/L; in experiment [4], 4 mg/L; in experiment [5], 0.25 mg/L; in experiment [6], 8 mg/L. In experiment [7], the MIC stood at 2 mg/L.
